Data on one compound can be found in patent US20260125374A1, “PI3K-ALPHA INHIBITORS AND METHODS OF MAKING AND USING THE SAME” (Relay Therapeutics, Inc., priority 2021, published 2026).

This data set in a line: Granulation simulation experiments. In kind it is physicochemical. The method, then:
Ethanol (without pretreatment by molecular sieve) and pure water were added drop wise to about 20 mg of I-1 Form A separately until solid is wetted sufficiently. Manually grind the samples with a mortar and pestle for about 5 min. Samples were dried under ambient condition for 10 min. Form transformation and degree of crystallinity were evaluated by XRPD.
Ethanol (without pretreatment by molecular sieve) and pure water were added drop wise to about 20 mg of Form A separately until solid is wetted sufficiently. Manually grind the samples with a mortar and pestle for about 5 min. Samples were dried under ambient condition for 10 min. Form transformation and degree of crystallinity were evaluated by XRPD.

With `N#Cc1c(-c2cc(NC(=O)c3cc(F)cc(C(F)(F)F)c3)c3c(c2)C(=O)N[C@H]3c2cc(F)ccc2Cl)ccc2ncnn12` [Compound I-1, (R)-N-(3-(2-chloro-5-fluorophenyl)-6-(5-cyano-[1,2,4]triazolo[1,5-a]pyridin-6-yl)-1-oxoisoindolin-4-yl)-3-fluoro-5-(trifluoromethyl)benzamide], the “form change on granulation simulation (XRPD)” value (ethanol and water) is “no form change”. The XRPD result is “No form and crystallinity change” (granulation simulation with Ethanol); “No form and crystallinity change” (granulation simulation with water).
